Tested on: rice plants
Experiment: Field trials 2012-2015: tolerance of rice plants to heat stress (eleven trials)
Format: in vivo, Oryza sativa L.
Procedure: Field trials were setup during the hot season in India to test the effect of treatment with the compound of formula (Ia) on tolerance of rice plants to heat stress.
Trials were conducted in 2012, 2013, 2014, and 2015 in the Tamil Nadu rice production area (India) at the following sites: Kelamoor (lat. 12.42, long. 79.81), Kokkur (lat. 11.02, long. 79.32), Nachinargudi (lat. 11.01, long. 79.3), Velamoor (lat. 12.41, long. 79.8), Kumbakonam (lat. 10.97, long. 79.42) and Ramapuram (lat. 12.43, long. 79.83). The test sites had similar soil chemical properties, with an average soil pH of 6.6.
Rice (Oryza sativa L.) of the local varieties ADT43, ADT45 and NK5251 were mechanically transplanted at four plants per hill with a plant spacing of 16 cm and a row spacing of 30 cm. All trials were performed in good level of water management. Fertilizer was applied in accordance with the best local practice across the trial area.
Commercial treated seeds (no neonicotinoids as seed treatments) were used. Weed control was according to the best local practice in order to provide excellent weed control. Foliar fungicides and insecticides were applied according to common practice (no products that contain neonicotinoids or strobilurins).
The trial design was a randomized bloc design. Plot size was 40 m^2 (4 m width [12 rows] by 10 m row length). Each trial had four replicates. In total, eleven trials were conducted.
The compound of formula (Ia) was applied at a rate of 10 g ai/ha with small-plot hand-held boom sprayer. Application of the compound was as broadcast foliar spray in close proximity to leaf/canopy surface (25-40 cm distance from the crop). The used spray volumes were between 250 L/ha and 500 L/ha. Application was done either at panicle initiation (BBCH 30), at panicle formation (BBCH 32), at spikelet differentiation (BBCH 35), at meiosis (BBCH 39) or at heading (BBCH 51). In some experiments, the compound was applied twice (2×10 g ai/ha) at consecutive growth stages (i.e., BBCH 30+32, BBCH 32+35, BBCH 35+39, and BBCH 39+51).
Temperature was recorded nearby the trial sites. During and up to 14 days after the critical growth stages (i.e. from panicle initiation until heading) the mean daily minimum temperature was 25.1° C. (in the range of 22.6° C. to 27.1° C.) and the mean daily maximum temperature was 35.5° C. (in the range of 29.0 to 38.9° C.).
Tolerance to heat stress was assessed by measuring the following yield components: number of panicles per area, number of grains per panicle, percentage of ripened (filled) grains, number of tillers per area, percentage of productive tillers, grain yield per area at 14% moisture and thousand grain weight (TGVV).
The data in Tables 1 to 3 represent averages of the results from all eleven independent field trials, expressed as a percentage compared to the untreated control. The percentage increase or decrease was calculated for each trial relative to the untreated control for that trial, prior to calculating the mean percentage change across all 11 trials.

[1] = BBCH 30 at application, 10 g ai/ha foliar spray, mean of 11 trials, mean daily min 25.1° C., max 35.5° C.
[2] = BBCH 32 at application, 10 g ai/ha foliar spray, mean of 11 trials, mean daily min 25.1° C., max 35.5° C.
[3] = BBCH 35 at application, 10 g ai/ha foliar spray, mean of 11 trials, mean daily min 25.1° C., max 35.5° C.
[4] = BBCH 39 at application, 10 g ai/ha foliar spray, mean of 11 trials, mean daily min 25.1° C., max 35.5° C.
[5] = BBCH 51 at application, 10 g ai/ha foliar spray, mean of 11 trials, mean daily min 25.1° C., max 35.5° C.
[6] = maximum air temperature 35.1-36 ° C. during five days after application, applied between BBCH 30 and BBCH 51, 10 g ai/ha
[7] = maximum air temperature 36.1-37 ° C. during five days after application, applied between BBCH 30 and BBCH 51, 10 g ai/ha
[8] = maximum air temperature >37 ° C. during five days after application, applied between BBCH 30 and BBCH 51, 10 g ai/ha
[9] = maximum air temperature ≤35 ° C. during five days after application, applied between BBCH 30 and BBCH 51, 10 g ai/ha

`COc1cccc(Nc2nc(F)nc3[nH]cnc23)c1` [formula (Ia)] was tested, and the “Empty spikelets (% of UTC)” value [1] was −7.5 % of UTC, the “TGW (% of UTC), thousand grain weight” value [1] was “+2.5 % of UTC” and the “Grain yield (% of UTC)” value (BBCH 30 at application, 10 g ai/ha foliar spray, mean of 11 trials, mean daily min 25.1° C., max 35.5° C. during 14 days after application) was “+6.0 % of UTC”. For the same compound, the “grain yield (as percent change compared to untreated controls)” value (BBCH 30 at application, maximum air temperature >36° C. during five days after application, 10 g ai/ha) was “+7.5%”, the “grain yield (as percent change compared to untreated controls)” value (BBCH 30 at application, maximum air temperature ≤36° C. during five days after application, 10 g ai/ha) was “+1.6%” and the “Empty spikelets (% of UTC)” value [2] was −9.3 % of UTC. For the same compound, the “Grain yield (% of UTC)” value [2] was “+7.4 % of UTC”, the “TGW (% of UTC), thousand grain weight” value [2] was “+2.2 % of UTC” and the “grain yield (as percent change compared to untreated controls)” value (BBCH 32 at application, maximum air temperature >36° C. during five days after application, 10 g ai/ha) was “+9.0%”. For the same compound, the “grain yield (as percent change compared to untreated controls)” value (BBCH 32 at application, maximum air temperature ≤36° C. during five days after application, 10 g ai/ha) was “+0.7%”, the “Empty spikelets (% of UTC)” value [3] was −3.8 % of UTC and the “Grain yield (% of UTC)” value [3] was “+4.7 % of UTC”. For the same compound, the “TGW (% of UTC), thousand grain weight” value [3] was “+1.8 % of UTC”, the “grain yield (as percent change compared to untreated controls)” value (BBCH 35 at application, maximum air temperature >36° C. during five days after application, 10 g ai/ha) was “+5.4%” and the “grain yield (as percent change compared to untreated controls)” value (BBCH 35 at application, maximum air temperature ≤36° C. during five days after application, 10 g ai/ha) was “+1.8%”. The “Empty spikelets (% of UTC)” value [4] was −6.6 % of UTC, the “Grain yield (% of UTC)” value [4] was “+4.9 % of UTC” and the “TGW (% of UTC), thousand grain weight” value [4] was “+1.6 % of UTC”. For the same compound, the “grain yield (as percent change compared to untreated controls)” value (BBCH 39 at application, maximum air temperature >36° C. during five days after application, 10 g ai/ha) was “+5.1%”, the “grain yield (as percent change compared to untreated controls)” value (BBCH 39 at application, maximum air temperature ≤36° C. during five days after application, 10 g ai/ha) was “+2.6%” and the “Empty spikelets (% of UTC)” value [5] was −3.5 % of UTC. For the same compound, the “Grain yield (% of UTC)” value [5] was “+2.8 % of UTC”, the “TGW (% of UTC), thousand grain weight” value [5] was “+2.0 % of UTC” and the “grain yield (as percent change compared to untreated controls)” value (BBCH 51 at application, maximum air temperature >36° C. during five days after application, 10 g ai/ha) was “+3.6%”. For the same compound, the “grain yield (as percent change compared to untreated controls)” value (BBCH 51 at application, maximum air temperature ≤36° C. during five days after application, 10 g ai/ha) was −0.7%, the “grain yield, effect in words” value (applied between BBCH 30 (panicle initiation) and BBCH 51 (heading)) was “an increase of grain yield was achieved” and the “effect of treatment on rice grain yield, in words” value (daily maximum temperature above 36° C. at least one day after application but within 5 days after application) was “clear beneficial effect”. The “Grain yield (% of UTC)” value [6] was “+1.1 % of UTC”, the “TGW (% of UTC)” value [6] was “+2.3 % of UTC” and the “Grain yield (% of UTC)” value [7] was “+5.5 % of UTC”. The “TGW (% of UTC)” value [7] was “+2.2 % of UTC”, the “Grain yield (% of UTC)” value [8] was “+6.6 % of UTC” and the “TGW (% of UTC)” value [8] was “+1.8 % of UTC”. For the same compound, the “Grain yield (% of UTC)” value [9] was “+0.9 % of UTC”, the “TGW (% of UTC)” value [9] was “+1.4 % of UTC” and the “heat stress protection, in words” value (plants at growth stages from panicle initiation (BBCH 30) to heading (BBCH 51) at the time of treatment) was “heat stress protection was achieved”.
